Test results: article PMC8041276 (ACS Chemical Neuroscience, 2021)

Legend:
[1] = system: HepG2 cells; assay: LDH assay, hepatotoxicity in HepG2 cells; format: cell-based, human; conditions: HepG2, 24 h, 0.1–25 μM
Description: Human hepatocellular carcinoma cells (HepG2) were cultured using standard procedures (protocol from ATCC). Cells were cultured in Eagle’s minimum essential medium (EMEM) in flasks with an area of 25 cm^2 (Falcon), supplemented with 10% of fetal bovine serum (FBS, Life Technologies) with the addition of 100 IU/mL penicillin (Sigma-Aldrich) and 100 μg/mL streptomycin (Sigma-Aldrich) and incubated at 37 °C in a humidified atmosphere with 5% CO2.
Cells were seeded at density 2 × 10^4 cells/per well in […] plates. After 24 h, compound 27 and reference standard DOX (highly cytotoxic agent) were added to final concentrations of 0.1–150 μM. After 24 h incubation, plates were centrifuged (200g, 2 min) and 50 μL of the supernatant was transferred into the corresponding 96-well plate. Subsequently, 50 μL of LDH-reaction mixture prepared according to the manufacturer’s instructions (Invitrogen) was added to each well. Incubation was conducted in darkness for 30 min at room temperature. Next, stop solution was added and absorbance was measured at 490 nm (A490) using a plate reader (Spectra Max iD3, Molecular Devices). Cytotoxicity was determined as follows: cytotoxicity (%) = [(compound LDH activity – spontaneous LDH activity)/(maximum LDH activity – spontaneous LDH activity)] × 100. The maximum LDH activity was prepared by treating cells with lysis buffer. […]

[2] = system: cognitive flexibility; assay: Attentional set-shifting task (ASST); format: in vivo, male Sprague-Dawley rats; conditions: rats
Description: The experiments were conducted in accordance with the NIH Guide for the Care and Use of Laboratory Animals and were approved by the II Local Ethics Committee for Animal Experiments, Maj Institute of Pharmacology. Male […] Sprague-Dawley rats (Charles River, Germany) weighing ∼250 g at the arrival were housed in the standard laboratory cages, under standard colony A/C controlled conditions: room temperature 21 ± 2 °C, humidity (40–50%), 12 h light/dark cycle (lights on, 06:00) with ad libitum access to food (unless stated otherwise) and water. Rats were allowed to acclimatize for at least 7 days before the start of the experimental procedure. During this week animals were handled at least 3 times. Behavioral testing was carried out during the light phase of the light/dark cycle. At least 1 h before the start of the experiment, rats were transferred to the experimental room for acclimation.
Thirty-two male Sprague-Dawley rats were group housed with a mild food restriction (17 g of food pellets per day) for at least 1 week prior to training.
Testing was conducted in a Plexiglas apparatus (length × width × height: 38 cm × 38 cm × 17 cm) with the grid floor and wall dividing half of the length of the cage into two sections. During testing, one ceramic digging pot (internal diameter of 10.5 cm and a depth of 4 cm) was placed in each section. Each pot was defined by a pair of cues along with two stimulus dimensions. To mark each pot with a distinct odor, 5 μL of a flavoring essence (Dr Oetker, Poland, or The Body Shop, U.K.) was applied to a piece of blotting paper fixed to the external rim of the pot immediately prior to use. A different pot was used for each combination of digging medium and odor; only one odor was ever applied to a given pot. The bait (one-half of a Honey Nut Cheerios, Nestle) was placed at the bottom of the “positive” pot and buried in the digging medium. A small amount of powdered Cheerios was added to the digging media to prevent the rat from trying to detect the buried reward by its smell. […]
Day 3, Testing. […] An incorrect choice was recorded as an error. […]

[3] = target: T1, serotonin 5-HT2C receptor (Homo sapiens, UniProt P28335); assay: Eurofins Cerep off-target binding, % inhibition at 1 μM
T1 construct: Eurofins Cerep (contract assay)
T1 sequence (P28335 33-458): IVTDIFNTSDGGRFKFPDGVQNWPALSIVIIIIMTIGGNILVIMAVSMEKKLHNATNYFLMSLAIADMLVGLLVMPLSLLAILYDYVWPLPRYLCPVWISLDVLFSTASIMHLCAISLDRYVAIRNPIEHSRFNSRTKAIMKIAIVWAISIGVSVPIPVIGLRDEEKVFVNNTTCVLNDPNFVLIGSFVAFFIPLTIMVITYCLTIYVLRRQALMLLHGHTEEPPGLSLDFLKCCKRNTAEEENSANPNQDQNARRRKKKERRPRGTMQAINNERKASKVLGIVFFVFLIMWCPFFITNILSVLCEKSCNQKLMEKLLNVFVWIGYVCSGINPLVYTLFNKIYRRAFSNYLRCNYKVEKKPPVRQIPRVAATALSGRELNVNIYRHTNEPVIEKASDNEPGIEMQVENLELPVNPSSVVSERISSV
Description: (§1) Additionally, the affinity of compound 27 at the adrenergic α1A, muscarinic M1, histaminergic H1, dopaminergic D3, serotoninergic 5-HT2C, 5-HT3 receptors, serotonin transporter (SERT), and the human ether-a-go-go-related gene (hERG) channel were evaluated in Eurofins Cerep.

[4] = target: T2, D3 dopamine receptor (Homo sapiens, UniProt P35462); assay: as above
T2 construct: Eurofins Cerep (contract assay)
Description: as §1

[5] = target: T3, hERG channel (Homo sapiens, UniProt Q12809); assay: as above
T3 construct: Eurofins Cerep (contract assay)
Description: as §1

T3 sequence (Q12809 whole entry): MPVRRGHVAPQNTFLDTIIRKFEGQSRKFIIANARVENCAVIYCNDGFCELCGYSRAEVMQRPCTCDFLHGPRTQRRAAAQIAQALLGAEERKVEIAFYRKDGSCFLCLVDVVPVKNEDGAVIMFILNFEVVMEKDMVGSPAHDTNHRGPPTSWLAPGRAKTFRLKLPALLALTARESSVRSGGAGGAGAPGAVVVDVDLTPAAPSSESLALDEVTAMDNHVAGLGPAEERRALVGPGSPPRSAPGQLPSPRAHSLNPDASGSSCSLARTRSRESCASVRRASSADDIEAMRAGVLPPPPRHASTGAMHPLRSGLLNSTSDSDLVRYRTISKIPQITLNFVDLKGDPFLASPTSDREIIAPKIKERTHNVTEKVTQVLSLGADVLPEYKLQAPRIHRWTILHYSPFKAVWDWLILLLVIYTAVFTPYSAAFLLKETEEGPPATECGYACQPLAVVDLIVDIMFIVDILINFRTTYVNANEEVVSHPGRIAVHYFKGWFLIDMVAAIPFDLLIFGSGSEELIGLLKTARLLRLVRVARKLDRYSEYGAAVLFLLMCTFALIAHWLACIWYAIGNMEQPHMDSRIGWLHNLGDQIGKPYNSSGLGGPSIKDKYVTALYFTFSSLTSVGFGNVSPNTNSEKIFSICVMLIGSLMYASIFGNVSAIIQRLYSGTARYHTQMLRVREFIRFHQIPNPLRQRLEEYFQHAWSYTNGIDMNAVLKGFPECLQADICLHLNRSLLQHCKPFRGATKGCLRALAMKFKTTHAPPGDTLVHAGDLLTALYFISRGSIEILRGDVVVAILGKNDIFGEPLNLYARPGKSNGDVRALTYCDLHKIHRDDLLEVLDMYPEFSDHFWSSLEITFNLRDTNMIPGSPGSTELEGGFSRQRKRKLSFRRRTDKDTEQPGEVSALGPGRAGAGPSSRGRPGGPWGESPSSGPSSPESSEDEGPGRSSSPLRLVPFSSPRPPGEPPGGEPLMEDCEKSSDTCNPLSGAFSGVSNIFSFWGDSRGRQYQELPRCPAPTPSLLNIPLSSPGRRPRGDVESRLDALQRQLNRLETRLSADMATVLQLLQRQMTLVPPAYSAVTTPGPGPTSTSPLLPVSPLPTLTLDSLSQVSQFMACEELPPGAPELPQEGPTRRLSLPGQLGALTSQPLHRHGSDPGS
T2 sequence (P35462 whole entry): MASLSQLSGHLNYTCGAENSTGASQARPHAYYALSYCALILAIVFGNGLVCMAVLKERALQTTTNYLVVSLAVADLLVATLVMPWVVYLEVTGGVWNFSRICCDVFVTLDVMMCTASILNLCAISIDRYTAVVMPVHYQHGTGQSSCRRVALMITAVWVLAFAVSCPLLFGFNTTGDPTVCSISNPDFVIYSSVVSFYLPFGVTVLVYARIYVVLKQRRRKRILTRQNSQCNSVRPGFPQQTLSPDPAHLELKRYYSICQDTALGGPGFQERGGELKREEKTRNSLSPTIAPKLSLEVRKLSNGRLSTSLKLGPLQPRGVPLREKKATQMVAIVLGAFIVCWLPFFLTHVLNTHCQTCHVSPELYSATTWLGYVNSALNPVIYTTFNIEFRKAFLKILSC

O=C(N[C@@H]1CCNC1)c1ccn(S(=O)(=O)c2cccc(Cl)c2)c1-c1ccc(F)cc1 [Compound 27, (R)-2-(4-Fluorophenyl)-1-[(3-chlorophenyl)sulfonyl]-N-(pyrrolidin-3-yl)-1H-pyrrole-3-carboxamide]
cell membrane integrity (LDH test) [1]: did not affect the cell membrane integrity | cognitive flexibility (trials to criterion) ([2]; 6 mg/kg p.o.): effective only during the Rev2 phase | cognitive flexibility (trials to criterion) ([2]; 9 mg/kg p.o., ED, Rev1, Rev2, Rev3 stages): enhanced cognitive flexibility | mean time to complete the trial ([2]; 6 and 9 mg/kg p.o., all discrimination stages): did not affect the mean time to complete the trial | inhibition at 1 µM [3]: 10% | inhibition at 1 µM [4]: 17% | inhibition at 1 µM [5]: 1%
